Laboratory results as given in publication PMC9250534, “Synthesis and direct assay of large macrocycle diversities by combinatorial late-stage modification at picomole scale” (Nature Communications, 2022).
Numbered stars: 1 amine (or outer) side, 2 acyl side, 3 side chain; on linkers, the order of the positions; unused ones are H or OH. Bridge positions count the residues as written; N and C are the ends. Square brackets hold non-standard residues; d marks the D form. Peptide text beside a SMILES is read from it. * marks the point of attachment. ξ: configuration not given here. ξPro(4-NHCO(5-Cl-2-thienyl)) = O=C(NC1CNC(C(=O)O)C1)c1ccc(Cl)s1; Pyrazinoyl(5-oxo-4H) = O=C(c1c[nH]c(=O)cn1)*; 1,2,3Thiadiazole5CO(4-Me) = Cc1nnsc1C(=O)*; Isoorotoyl = O=C(c1c[nH]c(=O)[nH]c1=O)*; 2Thenoyl(5-Cl) = O=C(c1ccc(Cl)s1)*; Cysteamide = C(CS[*:3])N[*:1]; Isovaleryl = CC(C)CC(=O)*; Orn = NCCC[C@H](N)C(=O)O; 2Furoyl = O=C(c1ccco1)*; Api = NC1(C(=O)O)CCNCC1; Bz = O=C(c1ccccc1)*; βAla = NCCC(=O)O; Mpa = O=C(O)CCS

Target: T1, thrombin (Homo sapiens, UniProt P00734)
T1 construct: consists of two polypeptide chains of 36 (light chain) and 259 amino acid
Assay: Thrombin inhibition screen of crude macrocycle reactions (residual thrombin activity, fluorogenic substrate Z-Gly-Gly-Arg-AMC)
Type: biochemical
Details: 10 µM macrocycle concentration; for percent residual thrombin activity: crude reactions, Library 1a-l, scaffold AA1-AA2-AA3 combined with 1-16 or '-'; for % thrombin activity, Original screen / % thrombin activity, Repeat screen: macrocycles containing acid 14, crude reaction; for % thrombin activity, Repeat screen: replicate reaction and screen
Description: As a proof-of-concept, we screened the macrocycle library for inhibitors against thrombin, which is the central blood coagulation protease and an important therapeutic target. We conducted the screen for thrombin-inhibiting macrocycles in 384-well reaction plates. Briefly, each well contained a unique macrocycle (10 μM), 5 μL of thrombin (2 nM final conc.), and subsequently, 5 µL of a fluorogenic substrate to measure the residual thrombin activity and the extent of protease inhibition.
The assays were performed in 384-well plates using Tris buffer at pH 7.4 (100 mM Tris-Cl, 150 mM NaCl, 10 mM MgCl2, 1 mM CaCl2, 0.1% w/v BSA, 0.01% v/v Triton-X100, and 0.6% v/v DMSO) using thrombin at a final concentration of 2 nM and the fluorogenic substrate Z-Gly-Gly-Arg-AMC at a final concentration of 50 μM. Thrombin (5 μL, 6 nM) in the Tris-Cl buffer described above was added to each peptide using a BioTek MultiFlo microplate dispenser, and incubated for 10 min at room temperature. […] Data was collected and exported using the Tecan Infinite M200 Pro instrument software. […] For the negative controls (20 wells containing DMSO but no macrocycle), an average slope was calculated. The percent of thrombin inhibition was calculated by dividing the slopes and multiplying the results by 100.

| SMILES | percent residual thrombin activity [%] | % thrombin activity, Original screen [%] | % thrombin activity, Repeat screen [%] | also measured |
| --- | --- | --- | --- | --- |
| CC(C)CC(=O)NCCCC[C@@H]1NC(=O)[C@@H]2CCCN2C(=O)[C@@H](C)NC(=O)CCSSCCNC1=O [a-B1-D1/8] ([Mpa][dA]PK(Isovaleryl)-Cysteamide; disulfide 1-C) | 110.343 | – | – | – |
| CC(C)C[C@@H]1NC(=O)CCNC(=O)CCSSCCNC(=O)[C@H](CCCNC(=O)c2ccccc2)NC1=O [B2-L-D2/1] ([Mpa][βAla]L[Orn](Bz)-Cysteamide; disulfide 1-C) | 106.68 | – | – | – |
| O=C1CCSSCCNC(=O)[C@@H]2CCCN2C(=O)[C@H](CCCCNC(=O)c2c[nH]c(=O)[nH]c2=O)NC(=O)[C@H](Cc2c[nH]c3ccccc23)N1 [W-D1-B1/11] ([Mpa]WK(Isoorotoyl)P-Cysteamide; disulfide 1-C) | 99.1805 | – | – | – |
| O=C1CCSSCCNC(=O)C2CCCN(C2)C(=O)C2CC(NC(=O)c3ccc(Cl)s3)CN2C(=O)C(Cc2ccc(O)cc2)N1 (stereo not drawn) [X y D5 B4] | – | 109.6 | 115.2 | – |
| CC(C)C1NC(=O)C2CCCN(C2)C(=O)C(NC(=O)c2ccc(Cl)s2)CSSCCNC(=O)CNC1=O (stereo not drawn) [C B4 V G] | – | 107.3 | 115.5 | – |
| CC(C)CC(=O)NCCC[C@@H]1NC(=O)[C@H](CO)NC(=O)[C@@H]2CCCN2C(=O)CCSSCCNC1=O [B1-S-D2/8] ([Mpa]PS[Orn](Isovaleryl)-Cysteamide; disulfide 1-C) | 106.543 | – | – | – |
| CC(C)C[C@@H]1NC(=O)CCSSCCNC(=O)[C@H](CCCCNC(=O)c2ccc(Cl)s2)NC(=O)C2(CC2)CNC1=O [L-B6-D1/14] | 94.7651 | – | – | – |
| CC(C)CC(=O)NCCCC[C@@H]1NC(=O)[C@@H]2CCCN2C(=O)CCSSCCNC(=O)[C@@H](C(C)C)NC1=O [B1-D1-v/8] ([Mpa]PK(Isovaleryl)[dV]-Cysteamide; disulfide 1-C) | 112.751 | – | – | – |
| CCC(C)C1NC(=O)C(CCCCNC(=O)c2ccc(Cl)s2)NC(=O)CCSSCCNC(=O)C2(CC2)CNC1=O (stereo not drawn) [X D1 I B6] | – | 91.0 | 93.6 | – |
| NC(=O)CC[C@@H]1NC(=O)CCSSCCNC(=O)[C@H](CCCCNC(=O)c2c[nH]c(=O)[nH]c2=O)NC(=O)C2(CC2)CNC1=O [Q-B6-D1/11] | 108.88 | – | – | – |
| NC(=O)CCC1NC(=O)C(CCCCNC(=O)c2ccc(Cl)s2)NC(=O)CCSSCCNC(=O)C2CCCN2C1=O (stereo not drawn) [X D1 Q B1] ([Mpa]K(2Thenoyl(5-Cl))QP-Cysteamide; disulfide 1-C; configuration not given here) | – | 102.2 | 105.2 | – |
| O=C1CCSSCCNC(=O)c2cccc(c2)CNC(=O)[C@H](Cc2ccccc2)NC(=O)[C@H](CCCNC(=O)c2ccc(Cl)s2)N1 [X D2 F B5] | – | 95.3 | 93.4 | – |
| O=C1CCNC(=O)[C@H](Cc2c[nH]cn2)NC(=O)CCSSCCNC(=O)[C@H](CCCNC(=O)c2c[nH]c(=O)cn2)N1 [H-B2-D2/9] | 106.277 | – | – | – |
| CC(C)[C@@H]1NC(=O)c2ccc(cc2)CNC(=O)CCSSCCNC(=O)[C@H](CCCCNC(=O)c2c[nH]c(=O)cn2)NC1=O [B3-V-D1/9] | 107.378 | – | – | – |
| NC(=O)CCC1NC(=O)C2CC(NC(=O)c3ccc(Cl)s3)CN2C(=O)C2(CC2)CNC(=O)CCSSCCNC1=O (stereo not drawn) [X B6 D5 Q] | – | 109.4 | 121.6 | – |
| COc1ccc(C(=O)NCCCC[C@@H]2NC(=O)CCSSCCNC(=O)C3(CC3)CNC(=O)[C@H](CO)NC2=O)cn1 [D1-S-B6/10] | 102.192 | – | – | – |
| O=C(NCCCC[C@@H]1NC(=O)[C@H](Cc2c[nH]c3ccccc23)NC(=O)[C@H]2CCCN(C2)C(=O)CCSSCCNC1=O)c1ccc(Cl)s1 [X B4 W D1] | – | 84.9 | 86.6 | % thrombin activity, Original screen (listed as X B4 w D1): 105.6%; % thrombin activity, Repeat screen (listed as X B4 w D1): 113.0% |
| O=C1CCNC(=O)[C@H](CO)NC(=O)[C@H](CCCNC(=O)c2cnccn2)NC(=O)CCSSCCN1 [D2-S-B2/2] | 115.288 | – | – | – |
| O=C1CCSSCCNC(=O)[C@H](Cc2c[nH]c3ccccc23)NC(=O)[C@H](CCCCNC(=O)c2ccc(Cl)s2)NC(=O)c2cccc(c2)CN1 [B5-D1-W/14] | 107.115 | – | – | – |
| O=C(NCCCC[C@@H]1NC(=O)[C@@H]2CCCN2C(=O)CCSSCCNC(=O)[C@@H](Cc2ccc(O)cc2)NC1=O)c1ccccc1 [B1-D1-y/1] ([Mpa]PK(Bz)[dY]-Cysteamide; disulfide 1-C) | 105.697 | – | – | – |

| SMILES | percent residual thrombin activity [%] | % thrombin activity, Original screen [%] | % thrombin activity, Repeat screen [%] | also measured |
| --- | --- | --- | --- | --- |
| Cc1nnsc1C(=O)NCCCC[C@@H]1NC(=O)[C@H](Cc2ccc(O)cc2)NC(=O)C2(CC2)CNC(=O)CCSSCCNC1=O [B6-Y-D1/15] | 105.617 | – | – | – |
| CC(C)CC1NC(=O)C2CCCN2C(=O)CCSSCCNC(=O)C2CC(NC(=O)c3ccc(Cl)s3)CN2C1=O (stereo not drawn) [X B1 L D5] ([Mpa]PL[ξPro(4-NHCO(5-Cl-2-thienyl))]-Cysteamide; disulfide 1-C; configuration not given here) | – | 94.2 | 99.9 | – |
| CC(C)CC(=O)NCCCC[C@@H]1NC(=O)CCSSCCNC(=O)[C@@H](Cc2ccc(O)cc2)NC(=O)[C@H]2CCCN(C2)C1=O [D1-B4-y/8] | 108.143 | – | – | – |
| CC[C@H](C)[C@@H]1NC(=O)CCNC(=O)[C@H](CCCNC(=O)c2ccco2)NC(=O)CCSSCCNC1=O [D2-B2-I/16] | 111.823 | – | – | – |
| O=C1CCSSCCNC(=O)c2ccc(cc2)CNC(=O)[C@H](Cc2c[nH]c3ccccc23)NC(=O)[C@H](CNC(=O)c2ccc(Cl)s2)N1 [X D3 W B3] | – | 101.5 | 109.4 | – |
| O=C1CCSSCCNC(=O)[C@H](Cc2ccc(O)cc2)NC(=O)[C@H](CCCNC(=O)COc2ccccc2)NC(=O)CCN1 [B2-D2-Y/13] | 109.064 | – | – | – |
| O=C(NCCC[C@@H]1NC(=O)[C@H](CO)NC(=O)[C@@H]2CCCN2C(=O)CCSSCCNC1=O)c1c[nH]c(=O)[nH]c1=O [B1-S-D2/11] ([Mpa]PS[Orn](Isoorotoyl)-Cysteamide; disulfide 1-C) | 112.339 | – | – | – |
| CC(C)C1NC(=O)CCSSCCNC(=O)C(CNC(=O)c2ccc(Cl)s2)NC(=O)C2CCCN(C2)C1=O (stereo not drawn) [X V B4 D3] | – | 75.0 | 73.4 | – |
| CC(C)[C@@H]1NC(=O)CCSSCCNC(=O)[C@@H]2CCCN2C(=O)[C@H](CCCCNC(=O)c2ccco2)NC1=O [V-D1-B1/16] ([Mpa]VK(2Furoyl)P-Cysteamide; disulfide 1-C) | 110.34 | – | – | – |
| O=C1CCSSCCNC(=O)[C@H](Cc2c[nH]cn2)NC(=O)C2(CC2)CNC(=O)C2(CCN(C(=O)c3ccc(Cl)s3)CC2)N1 [X D6 B6 H] | – | 96.8 | 96.5 | – |
| CC(C)C1NC(=O)C(NC(=O)c2ccc(Cl)s2)CSSCCNC(=O)c2cccc(c2)CNC(=O)CNC1=O (stereo not drawn) [C v G B5] | – | 111.1 | 111.8 | – |
| O=C1CCSSCCNC(=O)C2CCCN2C(=O)C2(CCN(C(=O)c3ccc(Cl)s3)CC2)NC(=O)C(CO)N1 (stereo not drawn) [X s D6 B1] ([Mpa]S[Api](2Thenoyl(5-Cl))P-Cysteamide; disulfide 1-C; configuration not given here) | – | 97.6 | 99.9 | – |
| O=C1CCSSCCNC(=O)[C@@H](Cc2ccc(O)cc2)NC(=O)CCNC(=O)[C@H](CCCNC(=O)c2ccccc2)N1 [D2-B2-y/1] | 109.22 | – | – | – |
| O=C1CCSSCCNC(=O)[C@H](Cc2ccc(O)cc2)NC(=O)[C@H](CCCNC(=O)c2ccco2)NC(=O)CCN1 [B2-D2-Y/16] | 116.586 | – | – | – |
| NC(=O)CC[C@@H]1NC(=O)C2(CCN(C(=O)c3ccc(Cl)s3)CC2)NC(=O)c2cccc(c2)CNC(=O)CCSSCCNC1=O [X B5 D6 Q] | – | 54.9 | 55.7 | – |
| CC(C)C[C@@H]1NC(=O)[C@H](CCCNC(=O)c2ccc(Cl)s2)NC(=O)CCSSCCNC(=O)[C@H]2CCCN(C2)C1=O [X D2 L B4] | – | 98.3 | 94.7 | – |
| O=C(NCCCC[C@@H]1NC(=O)[C@@H]2CCCN2C(=O)CCSSCCNC(=O)[C@@H](Cc2ccc(O)cc2)NC1=O)c1c[nH]c(=O)cn1 [B1-D1-y/9] ([Mpa]PK(Pyrazinoyl(5-oxo-4H))[dY]-Cysteamide; disulfide 1-C) | 107.785 | – | – | – |
| O=C1CCSSCCNC(=O)[C@H]2CCCN(C2)C(=O)[C@H](Cc2c[nH]c3ccccc23)NC(=O)C2(CCN(C(=O)c3ccc(Cl)s3)CC2)N1 [X D6 W B4] | – | 95.3 | 101.4 | – |
| CC[C@H](C)[C@@H]1NC(=O)[C@H](CCCNC(=O)c2snnc2C)NC(=O)CCSSCCNC(=O)[C@@H]2CCCN2C1=O [D2-I-B1/15] ([Mpa][Orn](1,2,3Thiadiazole5CO(4-Me))IP-Cysteamide; disulfide 1-C) | 108.604 | – | – | – |
